Results reported in patent publication US11279733B2, “Peptide antibiotics” (priority 2017, dated 2022).
≈ marks a conversion by molar mass, not a printed value. Positions of bridges follow the written chain, without caps; N, C: chain ends. Non-standard residues stand in square brackets, D forms with d. Residues, ends and D or L forms follow the SMILES beside them. *: point of attachment. Decanoyl(3R-OH) = CCCCCCC[C@@H](O)CC(=O)*; dDab = NCC[C@@H](N)C(=O)O; Orn = NCCC[C@H](N)C(=O)O; Dab = NCC[C@H](N)C(=O)O

How the values were obtained:
A. baumannii ATCC 19606 = conditions: ATCC 19606
How it was run: (§1)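 Mid-log cultures grown in Mueller Hinton broth at 37° C were tested by 2-fold broth microdilution at 5×10^5 CFU/mL final. Compounds were dissolved in water and tested over a final range of 32 to 0.015 μg/mL.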

A. baumannii GN_093 PmxR = conditions: GN 093 PmxR
How it was run: as §1

E. coli ATCC 25922 = conditions: ATCC 25922
How it was run: as §1

K. pneumoniae ATCC 13883 = conditions: ATCC 13883
How it was run: as §1

[1] = test system: K. pneumoniae ATCC 700603, MDR; conditions: ATCC 700603
How it was run: as §1

[2] = test system: K. pneumoniae ATCC BAA-2146, NDM-1 pos; conditions: ATCC BAA-2146
How it was run: as §1

[3] = test system: K. pneumoniae GN_102 PmxR; conditions: GN 102 PmxR
How it was run: as §1

[4] = test system: K. pneumoniae GN_106, PmxR; conditions: GN 106, PmxR
How it was run: as §1

P. aeruginosa ATCC 27853 = conditions: ATCC 27853
How it was run: as §1

[5] = test system: P. aeruginosa GN_043, PmxR; conditions: for MIC, P. aeruginosa FADDI-PA070, PmxR: Table 5, polymyxin-resistant
How it was run: as §1

[6] = test system: P. aeruginosa GN_105, PmxR; conditions: GN 105, PmxR
How it was run: as §1

[7] = test system: S. aureus ATCC 25923, MSSA; conditions: ATCC 25923
How it was run: as §1

in vitro = conditions: human
Protocol: Cytotoxicity of the synthesised peptides was evaluated by comparison with commercially available colistin (polymyxin E), polymyxin B (Sigma chemical Co., St. Louis, Mo., U.S.A.) and synthetic octapeptin C4 by conducting lactate dehydrogenase (LDH) assay. CC50 values calculated based on curve fitting of dose dependent inhibition of cell growth represented the cytotoxicity of the peptide. Human kidney 2 (HK2) cells were seeded as 2000 cells per well in a 384 well cell culture plate in a final volume of 20 μL in DMEM/F12 medium (Invitrogen #11330057), in which 10% of FBS was added. Cells were incubated for 24 hours at 37° C., 5% CO2 to allow cells to attach to the plates. Similar conditions were employed for HEK293 and HepG2 cytotoxicity assays.
Cytotoxicity to HEK293 and HepG2 cells was determined using the resazurin assay (McMillian, M. K.; Li, L.; Parker, J. B.; Patel, L.; Zhong, Z.; Gunnett, J. W.; Powers, W. J.; Johnson, M. D. An improved resazurin-based cytotoxicity assay for hepatic cells; Cell Biol. Toxicol. 2002, 18, 157-173; O'Brien, J.; Wilson, I.; Orton, T.; Pognan, F. Investigation of the Alamar Blue (resazurin) fluorescent dye for the assessment of mammalian cell cytotoxicity. Eur. J. Biochem. 2000, 267, 5421-5426). In brief, HEK293 and HepG2 cells were seeded at 4000 cells/well in black-wall, clear-bottom 384-well plates (Corning, Australia) and incubated for 24 h at 37° C., 5% CO2. Compounds were then added into each well. After 24 h incubation, 5 μM resazurin was added per well and incubated at 37° C. for 2 h. Fluorescence intensity was then read using a Polarstar Omega with excitation/emission 560/590. The data was then analyzed using GraphPad Prism 6 software. CC50 values were determined using GraphPad Prism 6 software (Inc. La Jolla, Calif.).

| Structure (SMILES) | MIC, A. baumannii ATCC 19606 (A. baumannii ATCC 19606) | MIC, A. baumannii Cl Ptyela 10073 4512:2, PmxR (A. baumannii GN_093 PmxR) | MIC, E. coli ATCC 25922 (E. coli ATCC 25922) | MIC, K. pneumoniae ATCC 13883 (K. pneumoniae ATCC 13883) | MIC, K. pneumoniae ATCC 700603, MDR [1] | MIC, K. pneumoniae ATCC BAA-2146, NDM-1 pos [2] | MIC, K. pneumoniae Cl Koprana 10065 0661:1, PmxR [3] | MIC, K. pneumoniae Cl 138-16347-20362, PmxR [4] | MIC, P. aeruginosa ATCC 27853 (P. aeruginosa ATCC 27853) | MIC, P. aeruginosa FADDI-PA070, PmxR [5] | MIC, P. aeruginosa PA9704, PmxR [6] | MIC, S. Aureus ATCC 25923, MSSA [7] | CC50 at 24 h (in vitro) | further results |
| --- | --- | --- | --- | --- | --- | --- | --- | --- | --- | --- | --- | --- | --- | --- |
| CCCCCCC[C@@H](O)CC(=O)N[C@H](CCN)C(=O)N[C@H]1CCNC(=O)[C@H](CC(C)C)NC(=O)[C@H](CCN)NC(=O)[C@H](CCN)NC(=O)[C@H](CC(C)C)NC(=O)[C@@H](Cc2ccccc2)NC(=O)[C@H](CCCN)NC1=O [compound 994, 3(R)OH-nC9CO-D-Dab-cyc[L-Dab-L-Orn-D-Phe-L-Leu-L-Dab-L-Dab-L-Leu]] ({Decanoyl(3R-OH)}-[dDab][Dab][Orn][dF]L[Dab][Dab]L; lactam 2-C) | 32 µg/mL (≈ 30.2 µM) | 32 µg/mL (≈ 30.2 µM) | 8 µg/mL (≈ 7.56 µM) | 4 µg/mL (≈ 3.78 µM) | 8 µg/mL (≈ 7.56 µM) | 8 µg/mL (≈ 7.56 µM) | 4 µg/mL (≈ 3.78 µM) | 4 µg/mL (≈ 3.78 µM) | 2 µg/mL (≈ 1.89 µM) | >32 µg/mL | 8 µg/mL (≈ 7.56 µM) | 32 µg/mL (≈ 30.2 µM) | > 300 µM | – |
| CCCCCCC[C@@H](O)CC(=O)N[C@H](CCN)C(=O)N[C@H]1CCNC(=O)[C@H](CC(C)C)NC(=O)[C@H](CCN)NC(=O)[C@H](CCN)NC(=O)[C@H](CC(C)C)NC(=O)[C@@H](Cc2ccccc2)NC(=O)[C@H](CCCCN)NC1=O [compound 995, 3(R)OH-nC9CO-D-Dab-cyc[L-Dab-L-Lys-D-Phe-L-Leu-L-Dab-L-Dab-L-Leu]] ({Decanoyl(3R-OH)}-[dDab][Dab]K[dF]L[Dab][Dab]L; lactam 2-C) | >32 µg/mL | 32 µg/mL (≈ 29.8 µM) | 8 µg/mL (≈ 7.46 µM) | 8 µg/mL (≈ 7.46 µM) | 8 µg/mL (≈ 7.46 µM) | 8 µg/mL (≈ 7.46 µM) | 4 µg/mL (≈ 3.73 µM) | 8 µg/mL (≈ 7.46 µM) | 4 µg/mL (≈ 3.73 µM) | 8 µg/mL (≈ 7.46 µM) | 8 µg/mL (≈ 7.46 µM) | 32 µg/mL (≈ 29.8 µM) | > 300 µM | – |
| CCCCCCC[C@@H](O)CC(=O)N[C@H](CCN)C(=O)N[C@H]1CCNC(=O)[C@H](CC(C)C)NC(=O)[C@H](CCN)NC(=O)[C@H](CCN)NC(=O)[C@H](CC(C)C)NC(=O)[C@H](Cc2ccccc2)NC(=O)[C@H](CCN)NC1=O [compound 5002, 3(R)OH-nC9CO-D-Dab-cyc[L-Dab-L-Dab-L-Phe-L-Leu-L-Dab-L-Dab-L-Leu]] ({Decanoyl(3R-OH)}-[dDab][Dab][Dab]FL[Dab][Dab]L; lactam 2-C) | – | – | – | – | – | – | – | – | – | – | – | – | > 300 µM | MIC A. baumannii ATCC 19606 (A. baumannii ATCC 19606): >32 µg/mL; MIC A. baumannii GN_093 PmxR (A. baumannii GN_093 PmxR): >32 µg/mL; MIC E. coli ATCC 25922 (E. coli ATCC 25922): 32 µg/mL (≈ 30.6 µM); MIC K. pneumoniae ATCC 13883 (K. pneumoniae ATCC 13883): >32 µg/mL; MIC K. pneumoniae ATCC 700603, MDR [1]: 16 µg/mL (≈ 15.3 µM); MIC K. pneumoniae ATCC BAA-2146, NDM-1 pos [2]: 16 µg/mL (≈ 15.3 µM); MIC K. pneumoniae GN_102 PmxR [3]: 32 µg/mL (≈ 30.6 µM); MIC K. pneumoniae GN_106, PmxR [4]: >32 µg/mL; MIC P. aeruginosa ATCC 27853 (P. aeruginosa ATCC 27853): 4 µg/mL (≈ 3.83 µM); MIC P. aeruginosa GN_043, PmxR ([5]; P. aeruginosa GN_043, PmxR): 8 µg/mL (≈ 7.66 µM); MIC P. aeruginosa GN_105, PmxR [6]: >32 µg/mL; MIC S. aureus ATCC 25923, MSSA [7]: 32 µg/mL (≈ 30.6 µM) |
